Patent US20180369230A1, “TARGETED SELECTION OF PATIENTS FOR TREATMENT WITH SPECIFIC CORTISTATIN DERIVATIVES” (President and Fellows of Harvard College, priority 2015, published 2018)

Tests used:
SET-2 cells = assay: Gene expression, gene set enrichment analysis (GSEA); assay type: cell-based, human; conditions: SET-2, 4 h 25 nM
Protocol: (§1) Leukemia cells were plated (12-well) in triplicate at 500,000-800,000 cells per ml and incubated in the presence of vehicle (0.1% DMSO) or CA (25 nM 3 h for K562, MOLM-14 and MV4;11; 10 nM 24 h for MOLM-14; 25 nM 4 h for SET-2, n=3 for each cell line). Cells were then washed twice with cold PBS, and snap frozen. RNA was isolated (RNeasy Plus Microkit, Qiagen or TRIzol, Life Technologies), processed, and, for K562, MOLM-14 and MV4;11, hybridized to the Human U133 Plus 2.0 microarray (Affymetrix). Microarrays were processed with Bioconductor packages affyQCReport for quality control and affy for background correction, summarization, and normalization using rma. Probe sets present in at least 1 sample (based on affy mas5call) and for which the interquartile range was >log2(1.2) were retained for further analysis. The limma Bioconductor package was used for differential expression analysis of CA-treated versus DMSO control samples (Benjamini-Hochberg adjusted P<0.05). SET-2 and HCT 116 gene expression was measured by RNA-seq. SET-2 RNA-seq libraries were prepared and processed using the Ion Torrent workflow. Reads were aligned in two passes, first with rnaStar (v.2.3.0e) then with BWA (v.0.7.5a) for remaining unmapped reads, both using default parameters. Mapped reads were merged and counted using HTSeq (v.0.5.3p3) with -s yes -m intersection-strict. The Bioconductor package DESeq was used for DE analysis (FDR<0.05 and twofold change) and normalization. HCT116 cells were grown to approximately 80% confluence and were treated with either 100 nM CA or DMSO for 3 h (n=3). Cells were then washed twice with cold PBS and scraped into TRIzol reagent (Life Technologies). After collecting the RNA, it was further purified using an RNeasy mini kit (Qiagen) with an on-column DNase I digestion. Libraries for Illumina sequencing were generated via the Illumina TruSEQ stranded mRNA prep kit. Samples were run in a single lane on an Illumina HiSEQ 2000 sequencer with a single read flow cell using 1×50-bp reads and a 6-cycle index read. Reads were mapped to the hg19 reference genome using Tophat2 v.2.0.6 with custom settings including the setting of -library-type fr- firstrand to appropriately account for the stranded nature of the protocol. HTSeq v.0.6.1 was used to obtain read counts over annotated genes and differentially expressed genes were called by DESeq v.1.10.1 with a padj value of less than 0.01. Counts were normalized for GSEA using the limma voom function. Expression data for the I-BET151 comparison were downloaded from ArrayExpress (https://www.ebi.ac.uk/arrayexpress, accession E-MTAB-774) and processed files used as is. Gene lists were submitted to the DAVID web server (http://david.abcc.ncifcrf.gov) for functional annotation. GSEA version 2.09 was carried out using signal-to-noise on natural values as the metric. Signatures included curated gene sets (C2, v.3) downloaded from the Broad's MSigDB as well as signatures curated from in-house and published data sets.
(§2) The curated gene sets were analyzed together with over 4,000 signatures including the Broad Molecular Signatures database (C2).

MOLM-14 cells [1] = assay: as above; assay type: cell-based, human; conditions: MOLM-14, 3 h 25 nM
Protocol: as §1, §2

MOLM-14 cells [2] = assay: Screening drug resistant alleles; assay type: cell-based; conditions: WT and mutated CDK8 and CDK19
Protocol: All suspension cells were plated (96-well) in triplicate at 5,000-30,000 cells per well for testing (n=3). Viable cell number was estimated after 3, 7 and 10 days by counting viable cells from one vehicle well, generating a cell dilution series, transferring […] per well in duplicate to a 384-well plate, and performing a linear regression to CellTiter-Glo (Promega) response (SPECTRAmax M3, Molecular Devices). Cells from all wells were also fourfold diluted in media and transferred in duplicate for CellTiter-Glo measurement. On days 3 and 7, an equal volume for all wells was split-back with fresh media and compound, such that the resulting cell density for the vehicle well matched the initial seeding density. For days 7 and 10, estimated cell number represents the split-adjusted theoretical cell number. HCT116 were plated (96-well) in triplicate at 250 cells per well. Cells were incubated in the presence of vehicle, 1 μM paclitaxel, or compound. On day 7, CellTiter-Blue (Promega) response was measured and values were normalized to vehicle (100% growth) and paclitaxel (0% growth). For growth assays with inhibitors, n=3 for each concentration with two independent experiments. […]

SK-N-MC = assay: Soft agar growth assay; assay type: cell-based; conditions: Neuroblastoma, EWS-FLI1, 100 nM
Protocol: For the 62 cell lines 96 well suspension cell culture plates were prepared. 100 μL of the soft agar bottom layer (0.6% final concentration in complete medium) was poured and left to solidify. 50 μL of the soft agar top layer (0.4% final concentration) containing the corresponding cells and cell number were then added on top, solidified and incubated at 37° C., 10% CO2. After the soft agar had solidified, the test items were added at indicated final concentrations into the inner wells of the plate. Subsequently, the assay was incubated in cell culture incubators for 8 to 14 days. Finally, the assay was developed using Alamar Blue and upon 1-5 h of incubation at 37° C. fluorescence intensity was determined (excitation: 560 nm; emission: 590 nm). As low control, cells were treated with 1E-05M Staurosporine (6fold values). As high control, cells were treated with 0.1% DMSO (solvent control, 6 fold values).
Raw data were converted into percent soft agar growth relative to high controls (solvent 0.1% DMSO) and low controls (1E-05M Staurosporine), which were set to 100% and 0%, respectively. The results are tabulated in FIGS. 15A, 15B, and 15C and Table 4 below.

With Cortistatin A the NES (SET-2 cells; signature: GATA1/GATA2/RUNX1/FLI1/SCL Binding Sites in Mks) was 2.03, the NES (SET-2 cells; signature: GATA1/SCL Binding sites in Mks) was 2.27 and the NES (MOLM-14 cells [1]; signature: Downregulated by RUNX1-RUNX1T1 in CD34+ cord blook cells) was 2.50. For the same substance, the NES (MOLM-14 cells [1]; signature: Downregulated by RUNX1 knowckdown in Jurkat cells) was 2.00, the NES (MOLM-14 cells [1]; signature: Downregulated by RUNX1 knowckdown in Kasumi-1 cells) was 2.21 and the NES (MOLM-14 cells [1]; signature: Upregulated by C/EBPα in Burkitt lymphoma cells) was 2.56. The NES (MOLM-14 cells [1]; signature: Upregulated by C/EBPα in K562 cells) was 2.22, the NES (MOLM-14 cells [1]; signature: Upregulated by C/EBPα in KCL22 cells) was 2.22 and the NES (MOLM-14 cells [1]; signature: Upregulated by RUNX1-RUNX1T1 knockdown in Kasumi-1 cells) was 2.78. The “growth of cells expressing CDK8 W105M or CDK19 W105M” value (MOLM-14 cells [2]) was “confers Cortistatin A resistance” and the “% growth rel. to vehicle” value (SK-N-MC) was 45%.
